From ChEMBL document CHEMBL5523703, “Modulators for palmitoylation of proteins and small molecules” (Eur J Med Chem, 2024)

Experiments:
[1] = biological target: Carnitine O-palmitoyltransferase 1, liver isoform (Homo sapiens) (UniProt P50416); experiment: Inhibition of CPT1 (unknown origin) at 10 uM relative to control
[2] = biological target: Serine palmitoyltransferase small subunit B (Homo sapiens, UniProt Q8NFR3); experiment: Inhibition of SPTSSB (unknown origin) expressed in HEK293T cells; type: cell-based
Sequence of Serine palmitoyltransferase small subunit B (Q8NFR3 whole entry): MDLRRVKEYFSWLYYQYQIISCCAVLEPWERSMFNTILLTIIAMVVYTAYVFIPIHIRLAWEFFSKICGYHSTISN

NCI-H226 [3] = experiment: Antitumor activity against human NCI-H226 cells xenografted in CDX mouse model assessed as reduction in tumor growth at 75 mg/kg relative to control; type: functional; design: scale not given: the % may be the effect or the level left
NCI-H226 [4] = experiment: Antitumor activity against human NCI-H226 cells xenografted in CDX mouse model assessed as reduction in tumor growth at 30 mg/kg relative to control; type: functional; design: scale not given: the % may be the effect or the level left
[5] = biological target: T1, Transcriptional enhancer factor TEF-1 (Homo sapiens, UniProt P28347); experiment: Inhibition of N-terminal His-tagged human TEAD1 expressed in Escherichia coli BL21 (DE3) (209 to 424 residues) by affinity chromatography analysis
T1 sequence (P28347 whole entry, the tested form may be a part): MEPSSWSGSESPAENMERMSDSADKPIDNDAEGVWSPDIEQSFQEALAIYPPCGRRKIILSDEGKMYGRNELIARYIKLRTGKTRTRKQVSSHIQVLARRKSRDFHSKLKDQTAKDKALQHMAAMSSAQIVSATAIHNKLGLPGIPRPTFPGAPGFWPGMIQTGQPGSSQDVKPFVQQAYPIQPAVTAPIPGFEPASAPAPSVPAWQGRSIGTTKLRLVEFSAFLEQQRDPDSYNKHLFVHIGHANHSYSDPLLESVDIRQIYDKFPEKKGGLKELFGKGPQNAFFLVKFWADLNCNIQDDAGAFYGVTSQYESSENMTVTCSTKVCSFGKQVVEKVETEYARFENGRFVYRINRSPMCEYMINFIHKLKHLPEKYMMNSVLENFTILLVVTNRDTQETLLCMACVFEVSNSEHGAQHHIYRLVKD

LN-18 = experiment: Antitumor activity against human LN-18 cells assessed as reduction in cell growth incubated for 72 hrs in presence of sirtuins inhibitor by crystal violet staining based analysis; type: functional; details: LN-18, 72 h
[6] = biological target: T2, Protein-cysteine N-palmitoyltransferase HHAT (Homo sapiens, UniProt Q5VTY9); experiment: Inhibition of HHAT (unknown origin)
T2 sequence (Q5VTY9 whole entry): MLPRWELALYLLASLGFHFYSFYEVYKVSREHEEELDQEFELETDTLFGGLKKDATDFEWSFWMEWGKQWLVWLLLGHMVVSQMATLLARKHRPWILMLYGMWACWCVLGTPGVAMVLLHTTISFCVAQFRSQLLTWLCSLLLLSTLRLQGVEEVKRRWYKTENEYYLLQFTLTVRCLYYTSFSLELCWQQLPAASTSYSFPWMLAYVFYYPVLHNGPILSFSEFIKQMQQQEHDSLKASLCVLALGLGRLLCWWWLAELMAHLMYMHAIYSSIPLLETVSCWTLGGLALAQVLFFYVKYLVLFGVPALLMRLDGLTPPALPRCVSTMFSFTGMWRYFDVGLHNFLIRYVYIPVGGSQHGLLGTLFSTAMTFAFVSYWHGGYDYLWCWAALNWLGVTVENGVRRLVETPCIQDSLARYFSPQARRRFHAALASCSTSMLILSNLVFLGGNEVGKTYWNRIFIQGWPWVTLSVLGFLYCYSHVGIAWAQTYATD

[7] = biological target: Non-structural protein 4b (Hepacivirus hominis, UniProt F5B4I0); experiment: Inhibition of Hepatitis C virus genotype 1a NS4B
Sequence of Non-structural protein 4b (F5B4I0 whole entry): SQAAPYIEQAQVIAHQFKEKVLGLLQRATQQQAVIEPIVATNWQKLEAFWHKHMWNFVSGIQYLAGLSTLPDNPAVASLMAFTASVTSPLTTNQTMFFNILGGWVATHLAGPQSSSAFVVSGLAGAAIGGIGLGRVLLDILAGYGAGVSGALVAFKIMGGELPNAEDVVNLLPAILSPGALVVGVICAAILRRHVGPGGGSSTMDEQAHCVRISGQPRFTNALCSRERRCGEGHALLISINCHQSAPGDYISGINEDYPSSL

[8] = Inhibition of Candida albicans serine palmitoyltransferase
[9] = biological target: T3, Carnitine O-palmitoyltransferase 1, liver isoform (Homo sapiens, UniProt P50416); experiment: Binding affinity to CPT1 (unknown origin) assessed as inhibition constant
T3 sequence (P50416 whole entry): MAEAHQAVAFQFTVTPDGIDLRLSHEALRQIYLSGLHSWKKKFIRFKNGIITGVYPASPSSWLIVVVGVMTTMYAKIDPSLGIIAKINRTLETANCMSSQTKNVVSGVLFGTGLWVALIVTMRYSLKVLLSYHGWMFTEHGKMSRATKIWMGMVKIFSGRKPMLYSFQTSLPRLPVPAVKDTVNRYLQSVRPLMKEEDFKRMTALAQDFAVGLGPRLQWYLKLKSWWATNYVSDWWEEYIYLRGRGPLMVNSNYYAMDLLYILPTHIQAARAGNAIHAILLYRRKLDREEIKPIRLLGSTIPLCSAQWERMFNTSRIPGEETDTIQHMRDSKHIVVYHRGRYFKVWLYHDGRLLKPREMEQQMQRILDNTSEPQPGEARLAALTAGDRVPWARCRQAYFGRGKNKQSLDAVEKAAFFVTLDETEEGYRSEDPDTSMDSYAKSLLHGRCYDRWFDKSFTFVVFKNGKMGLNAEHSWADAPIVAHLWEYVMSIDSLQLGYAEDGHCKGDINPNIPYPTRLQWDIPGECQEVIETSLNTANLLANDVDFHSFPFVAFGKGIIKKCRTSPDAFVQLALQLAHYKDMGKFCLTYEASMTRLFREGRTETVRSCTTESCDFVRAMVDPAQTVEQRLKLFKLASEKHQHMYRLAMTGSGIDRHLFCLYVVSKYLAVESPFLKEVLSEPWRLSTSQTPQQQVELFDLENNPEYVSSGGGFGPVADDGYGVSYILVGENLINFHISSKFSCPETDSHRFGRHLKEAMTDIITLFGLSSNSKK

[10] = biological target: T3, Carnitine O-palmitoyltransferase 1, liver isoform; experiment: Inhibition of CPT1 (unknown origin)
[11] = biological target: T4, Carnitine O-palmitoyltransferase 1, liver isoform (Rattus norvegicus, UniProt P32198); experiment: Binding affinity to rat liver mitochondria CPT1 assessed as inhibition constant incubated for 3 to 6 mins by Liquid scintillation counting method
T4 sequence (P32198 whole entry): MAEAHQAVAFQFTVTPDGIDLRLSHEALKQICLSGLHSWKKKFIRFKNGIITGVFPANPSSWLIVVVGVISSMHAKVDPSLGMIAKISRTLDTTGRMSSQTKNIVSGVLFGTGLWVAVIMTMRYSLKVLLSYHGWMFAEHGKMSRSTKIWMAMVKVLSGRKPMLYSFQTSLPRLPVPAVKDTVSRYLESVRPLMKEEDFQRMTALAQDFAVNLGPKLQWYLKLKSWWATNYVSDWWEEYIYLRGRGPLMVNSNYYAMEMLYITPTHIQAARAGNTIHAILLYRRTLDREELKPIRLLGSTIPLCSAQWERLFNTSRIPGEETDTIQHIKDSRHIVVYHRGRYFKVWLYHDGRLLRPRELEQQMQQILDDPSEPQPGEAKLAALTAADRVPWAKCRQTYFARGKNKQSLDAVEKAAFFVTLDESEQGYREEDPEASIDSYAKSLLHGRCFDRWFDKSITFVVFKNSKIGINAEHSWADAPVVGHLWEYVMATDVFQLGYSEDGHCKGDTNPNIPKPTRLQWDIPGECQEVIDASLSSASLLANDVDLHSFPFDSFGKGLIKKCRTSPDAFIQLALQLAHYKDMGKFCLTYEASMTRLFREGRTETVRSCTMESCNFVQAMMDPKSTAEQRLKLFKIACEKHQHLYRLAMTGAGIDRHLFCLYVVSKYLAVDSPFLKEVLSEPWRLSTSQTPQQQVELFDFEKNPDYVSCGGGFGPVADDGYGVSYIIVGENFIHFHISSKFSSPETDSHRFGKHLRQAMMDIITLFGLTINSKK

[12] = biological target: T5, Carnitine O-palmitoyltransferase 1, muscle isoform (Homo sapiens, UniProt Q92523); experiment: Inhibition of CPT1B (unknown origin) in KB cells; type: cell-based
T5 sequence (Q92523 whole entry): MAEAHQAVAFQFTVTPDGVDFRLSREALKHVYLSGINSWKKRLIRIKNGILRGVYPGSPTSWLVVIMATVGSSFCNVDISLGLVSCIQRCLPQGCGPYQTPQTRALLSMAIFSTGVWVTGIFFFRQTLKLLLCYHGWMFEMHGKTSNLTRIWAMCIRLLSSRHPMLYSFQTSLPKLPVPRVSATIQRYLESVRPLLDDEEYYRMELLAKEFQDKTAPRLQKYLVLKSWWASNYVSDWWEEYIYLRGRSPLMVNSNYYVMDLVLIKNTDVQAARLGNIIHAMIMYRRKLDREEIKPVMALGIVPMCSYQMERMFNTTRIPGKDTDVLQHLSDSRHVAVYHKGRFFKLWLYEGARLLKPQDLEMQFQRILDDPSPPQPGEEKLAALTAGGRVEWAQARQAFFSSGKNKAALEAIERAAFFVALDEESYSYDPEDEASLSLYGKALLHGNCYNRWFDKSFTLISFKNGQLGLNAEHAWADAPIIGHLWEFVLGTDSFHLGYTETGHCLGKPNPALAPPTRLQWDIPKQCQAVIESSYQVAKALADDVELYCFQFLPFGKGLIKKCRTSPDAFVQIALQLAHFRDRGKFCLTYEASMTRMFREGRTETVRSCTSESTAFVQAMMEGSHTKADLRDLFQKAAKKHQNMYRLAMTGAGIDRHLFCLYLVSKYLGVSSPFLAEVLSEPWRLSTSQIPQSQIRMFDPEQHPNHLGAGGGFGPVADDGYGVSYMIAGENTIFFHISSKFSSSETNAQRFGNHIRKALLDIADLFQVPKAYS

[13] = biological target: T4, Carnitine O-palmitoyltransferase 1, liver isoform; experiment: Inhibition of rat hepatocytes CPT1A; type: cell-based, Hepatocyte
Plasmodium falciparum = experiment: […] activity against Plasmodium falciparum assessed as reduction in microbial growth; type: functional
[14] = biological target: Palmitoyltransferase ZDHHC9 (Homo sapiens, UniProt Q9Y397); experiment: Binding affinity to ZDHHC9 (unknown origin) assessed as inhibition constant
Sequence of Palmitoyltransferase ZDHHC9 (Q9Y397 whole entry): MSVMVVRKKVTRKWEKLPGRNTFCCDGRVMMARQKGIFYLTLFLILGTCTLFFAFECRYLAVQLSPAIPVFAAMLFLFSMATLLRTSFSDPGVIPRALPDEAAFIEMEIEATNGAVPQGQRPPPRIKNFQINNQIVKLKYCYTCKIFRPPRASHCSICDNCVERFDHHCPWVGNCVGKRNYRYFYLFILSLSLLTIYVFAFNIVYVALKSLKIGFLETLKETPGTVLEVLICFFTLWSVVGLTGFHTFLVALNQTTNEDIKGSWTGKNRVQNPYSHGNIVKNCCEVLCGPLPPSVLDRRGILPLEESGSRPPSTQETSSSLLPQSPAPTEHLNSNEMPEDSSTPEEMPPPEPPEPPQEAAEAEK

[15] = biological target: T2, Protein-cysteine N-palmitoyltransferase HHAT; experiment: Binding affinity to His-tagged HHAT (unknown origin) transfected in HEK293FT cells assessed as inhibition constant; type: cell-based
[16] = biological target: T3, Carnitine O-palmitoyltransferase 1, liver isoform; experiment: Inhibition of CPT1A (unknown origin)
[17] = biological target: T5, Carnitine O-palmitoyltransferase 1, muscle isoform; experiment: Inhibition of CPT1B (unknown origin)
[18] = Inhibition of N-terminal 6His-tagged human TEAD1 YAP-binding domain (219 to 435 residues) expressed in Escherichia coli BL21 (DE3)
[19] = biological target: T1, Transcriptional enhancer factor TEF-1; experiment: Inhibition of N-terminal 6His-tagged human TEAD1 YAP-binding domain (209 to 426 residues) expressed in Escherichia coli BL21 (DE3)

CCCCCCCCCCCCCC[C@]1(C(=O)O)CO1
inhibition [1]: 66%

CC(C)=CCC[C@]1(C)C=Cc2c(O)c3c(c(CC=C(C)C)c2O1)O[C@]12C(=C[C@@H]4C[C@H]1C(C)(C)O[C@@]2(C/C=C(/C)C(=O)O)C4=O)C3=O [GAMBOGIC ACID]
IC50 [2]: 2180 nM

C=C(F)C(=O)N1C[C@@H](Nc2ncccn2)[C@H](OCc2ccc(C(F)(F)F)cc2)C1
Activity (NCI-H226 [3]): 68%
Activity (NCI-H226 [4]): 54%
IC50 [5]: 11 nM

CC(C)(C)NC1CCN(c2cc(NCc3ccc(Cl)cc3)nc3ccccc23)CC1 [EZURPIMTROSTAT]
IC50 (LN-18): 220 nM

CCC(C)CNCC(=O)N1CCc2sccc2C1c1cccc(C)c1 (stereo unspecified)
IC50 [6]: 460 nM

CC#CCOc1ccc(C[C@H](NC(=O)[C@@H](/C=C/CCCCCCC(=O)CCCCCCC)[C@@](O)(CC(C)=O)C(=O)O)C(=O)O)cc1
IC50 [7]: 18.9 nM

CCCCCCCC(=O)CCCCCC/C=C/[C@H](C(=O)N[C@@H](Cc1ccc(O)cc1)C(=O)O)[C@@](O)(CC(=O)O)C(=O)O
IC50 [8]: 22 nM

CCCCCCCCCCCCCCNC(=O)N[C@H](CC(=O)[O-])C[N+](C)(C)C
Ki [9]: 360 nM
IC50 [10]: 680 nM

CCCCCCCCCCCCCCCC1(O)C[C@H](CC(=O)[O-])C[N+](C)(C)C1 (single isomer, unassigned)
Ki [11]: 4200 nM

COc1ccc(Cl)cc1S(=O)(=O)N1CCc2ccc(C(=O)Nc3ccc(C(=O)O)cc3)cc21
IC50 [12]: 21 nM
IC50 [13]: 1090 nM

CCCCCCCCCCCCOC(=O)[C@@H](N)CC(C)C
MIC (Plasmodium falciparum): 0.78 µg/mL

CC(C)Cc1ccc(C(C)CN2CCN(CCCC[C@H]3CNCCN3CCc3cc(C(F)(F)F)cc(C(F)(F)F)c3)C[C@@H]2Cc2ccc(O)cc2)cc1 (stereo partly specified)
Ki [14]: 66000 nM

CCC(C)CNCC(=O)N1CCc2sccc2C1COc1cccc(C)c1 (stereo unspecified)
Ki [15]: 7400 nM

CCCCCCOc1cccc(OCCCCNC(=O)N[C@H](CC(=O)[O-])C[N+](C)(C)C)c1
IC50 [16]: 130 nM
IC50 [17]: 5440 nM

C=CC(=O)N1CCC(CCOc2ccccc2)CC1
IC50 [18]: 580 nM
IC50 [19]: 610 nM
